From patent US20260297060A1, “COMPOUNDS FOR THE DEGRADATION OF MUTANT BRAF” (C4 THERAPEUTICS, INC., priority 2023, published 2026)
Where two headings read alike, the source gives them in different places.

Molecular target: T1, BRAF V600E (Homo sapiens, UniProt P15056+Q96SW2, V600E)
T1 construct: knock-in of the HiBiT tag to the endogenous BRAF V600E locus; host or cells: A375.10 (A375 clonal line, CRISPR HiBiT knock-in at the endogenous BRAF V600E locus)
Experiment: BRAF V600E HiBiT Degradation Assay
Format: cell-based
Method in brief: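 Endogenous HiBiT knock-in on BRAF V600E in A375 cells (clone A375.10); 11-point half-log series, top 10 μM, 2, 6 or 24 h at 37° C. Lytic HiBiT luminescence, background-subtracted, normalized to DMSO; 4-parameter fit gives DC50, Emax (residual protein) and IP (inflection point).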

[1] = A375.10 cells, BRAF V600E, 2 hours, inflection point, read-out: HiBiT-Degradation A375.10 BRAF 2 hours IP
[2] = A375.10 cells, BRAF V600E, 2 hours, read-out: HiBiT-Degradation A375.10 BRAF 2 hours DC50
[3] = A375.10 cells, BRAF V600E, 2 hours, residual protein remaining, read-out: HiBiT-Degradation A375.10 BRAF 2 hours Emax
[4] = A375.10 cells, BRAF V600E, 6 hours, inflection point, read-out: HiBiT-Degradation A375.10 BRAF 6 hours IP
[5] = A375.10 cells, BRAF V600E, 6 hours, read-out: HiBiT-Degradation A375.10 BRAF 6 hours DC50
[6] = A375.10 cells, BRAF V600E, 6 hours, residual protein remaining, read-out: HiBiT-Degradation A375.10 BRAF 6 hours Emax
[7] = A375.10 cells, HiBiT, BRAF V600E, 24 hours, read-out: HiBiT-Degradation A375.10 BRAF 24 hours DC50
[8] = A375.10 cells, HiBiT, BRAF V600E, 24 hours, read-out: HiBiT-Degradation A375.10 BRAF 24 hours Emax
[9] = A375.10 cells, HiBiT, BRAF V600E, 24 hours, read-out: HiBiT-Degradation A375.10 BRAF 24 hours IP
[10] = read-out: HiBiT-Degradation A375.10 BRAF 2 hours Emax, A375.10 cells, BRAF V600E, 2 hours, residual protein remaining

T1 sequence (P15056 whole entry V600E): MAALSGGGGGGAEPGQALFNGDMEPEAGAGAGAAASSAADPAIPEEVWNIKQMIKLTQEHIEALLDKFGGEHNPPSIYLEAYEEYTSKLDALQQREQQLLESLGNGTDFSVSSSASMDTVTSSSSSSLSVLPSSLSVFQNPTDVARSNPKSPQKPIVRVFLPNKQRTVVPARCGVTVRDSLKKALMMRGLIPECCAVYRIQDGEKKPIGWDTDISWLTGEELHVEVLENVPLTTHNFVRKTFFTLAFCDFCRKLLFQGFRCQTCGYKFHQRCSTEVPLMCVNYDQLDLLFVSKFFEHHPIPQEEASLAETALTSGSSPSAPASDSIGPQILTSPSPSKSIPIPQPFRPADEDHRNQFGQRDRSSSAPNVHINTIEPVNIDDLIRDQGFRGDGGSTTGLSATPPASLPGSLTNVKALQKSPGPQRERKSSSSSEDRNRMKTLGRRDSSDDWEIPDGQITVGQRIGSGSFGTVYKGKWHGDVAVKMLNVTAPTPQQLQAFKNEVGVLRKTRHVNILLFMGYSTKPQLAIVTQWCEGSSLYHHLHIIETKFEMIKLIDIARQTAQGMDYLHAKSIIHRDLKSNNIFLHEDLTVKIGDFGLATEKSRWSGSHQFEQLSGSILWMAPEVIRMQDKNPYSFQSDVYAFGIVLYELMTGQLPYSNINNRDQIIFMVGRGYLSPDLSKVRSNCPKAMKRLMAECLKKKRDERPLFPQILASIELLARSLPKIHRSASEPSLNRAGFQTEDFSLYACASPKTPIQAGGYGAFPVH
T1 sequence (Q96SW2 whole entry): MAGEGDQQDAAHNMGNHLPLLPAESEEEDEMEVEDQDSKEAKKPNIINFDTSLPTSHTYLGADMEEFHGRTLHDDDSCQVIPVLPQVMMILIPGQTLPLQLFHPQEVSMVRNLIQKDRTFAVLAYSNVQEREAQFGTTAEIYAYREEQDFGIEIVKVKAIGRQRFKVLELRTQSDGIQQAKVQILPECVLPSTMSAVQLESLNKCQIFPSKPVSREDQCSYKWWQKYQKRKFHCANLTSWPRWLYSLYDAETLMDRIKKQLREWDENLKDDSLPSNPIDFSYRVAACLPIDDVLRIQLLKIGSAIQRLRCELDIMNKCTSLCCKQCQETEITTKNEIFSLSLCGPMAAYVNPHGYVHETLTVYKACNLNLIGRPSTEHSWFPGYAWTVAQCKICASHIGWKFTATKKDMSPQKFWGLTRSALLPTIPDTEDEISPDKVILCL
T1 sequence (Q16531 whole entry partner): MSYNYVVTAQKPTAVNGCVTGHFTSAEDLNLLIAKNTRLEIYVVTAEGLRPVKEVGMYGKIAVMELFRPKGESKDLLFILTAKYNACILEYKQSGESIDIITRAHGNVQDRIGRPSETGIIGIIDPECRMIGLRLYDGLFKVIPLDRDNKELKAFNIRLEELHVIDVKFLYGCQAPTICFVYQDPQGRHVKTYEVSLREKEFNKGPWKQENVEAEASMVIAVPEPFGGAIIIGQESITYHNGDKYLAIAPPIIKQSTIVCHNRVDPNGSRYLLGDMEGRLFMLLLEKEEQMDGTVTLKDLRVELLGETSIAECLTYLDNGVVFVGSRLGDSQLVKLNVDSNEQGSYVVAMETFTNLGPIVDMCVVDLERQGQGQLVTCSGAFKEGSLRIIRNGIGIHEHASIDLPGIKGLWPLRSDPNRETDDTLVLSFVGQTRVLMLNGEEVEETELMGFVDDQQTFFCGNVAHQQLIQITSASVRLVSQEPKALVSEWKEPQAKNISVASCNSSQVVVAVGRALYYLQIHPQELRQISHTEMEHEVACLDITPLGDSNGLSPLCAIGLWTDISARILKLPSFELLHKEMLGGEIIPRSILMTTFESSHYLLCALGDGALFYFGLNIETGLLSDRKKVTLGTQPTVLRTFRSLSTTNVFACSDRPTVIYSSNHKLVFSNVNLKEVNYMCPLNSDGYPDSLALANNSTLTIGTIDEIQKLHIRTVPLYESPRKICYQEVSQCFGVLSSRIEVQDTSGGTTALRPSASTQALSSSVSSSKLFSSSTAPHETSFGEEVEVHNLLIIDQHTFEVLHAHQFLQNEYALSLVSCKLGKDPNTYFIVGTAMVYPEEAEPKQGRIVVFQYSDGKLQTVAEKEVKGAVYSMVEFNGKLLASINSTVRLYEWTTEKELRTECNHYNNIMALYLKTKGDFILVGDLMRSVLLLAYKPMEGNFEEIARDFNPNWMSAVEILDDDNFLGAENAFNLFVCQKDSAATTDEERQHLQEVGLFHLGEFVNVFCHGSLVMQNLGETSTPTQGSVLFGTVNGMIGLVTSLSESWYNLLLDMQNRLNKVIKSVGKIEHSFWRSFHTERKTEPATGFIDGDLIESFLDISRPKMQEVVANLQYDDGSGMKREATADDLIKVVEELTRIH

Row | Structure (SMILES) | DC50 [1] [nM] | DC50 [2] [nM] | Emax [3] [%] | DC50 [4] [nM] | DC50 [5] [nM] | Emax [6] [%] | DC50 [7] [nM] | Emax [8] [%] | DC50 [9] [nM] | HiBiT-Degradation A375.10 BRAF 2 hours IP (A375.10 cells, BRAF V600E, 2 hours, inflection point) | HiBiT-Degradation A375.10 BRAF 6 hours IP (A375.10 cells, BRAF V600E, 6 hours, inflection point) | HiBiT-Degradation A375.10 BRAF 24 hours IP (A375.10 cells, HiBiT, BRAF V600E, 24 hours) | DC50 (read-out: HiBiT-Degradation A375.10 BRAF 2 hours DC50, A375.10 cells, BRAF V600E, 2 hours) [nM] | DC50 (read-out: HiBiT-Degradation A375.10 BRAF 6 hours DC50, A375.10 cells, BRAF V600E, 6 hours) [nM] | DC50 (read-out: HiBiT-Degradation A375.10 BRAF 24 hours DC50, A375.10 cells, HiBiT, BRAF V600E, 24 hours) [nM] | Emax [10] [%]
1 | CCN(C)S(=O)(=O)Nc1ccc(F)c(Oc2ccc3ncn([C@H]4COC5(CCN(C6CCC(c7cc8c(cc7F)c(N7CCC(=O)NC7=O)nn8C)CC6)CC5)C4)c(=O)c3c2)c1F (single isomer, unassigned) [Compound 71] | < 1000 | < 1000 | < 50 | < 1000 | < 1000 | < 50 | < 1000 | < 50 | < 1000 | – | – | – | – | – | – | –
2 | CCN(C)S(=O)(=O)Nc1ccc(F)c(Oc2ccc3ncn([C@H]4COC5(CCN(C6CC(c7cc8c(cc7F)c(N7CCC(=O)NC7=O)nn8C)C6)CC5)C4)c(=O)c3c2)c1C#N (single isomer, unassigned) [Compound 70] | – | – | < 50 | – | – | < 50 | – | < 50 | – | *** (<=1 μM) | *** (<=1 μM) | *** (<=1 μM) | < 1000 | < 1000 | < 1000 | –
3 | CCN(C)S(=O)(=O)Nc1ccc(F)c(Oc2ccc3ncn([C@H]4COC5(CCN(C6CC7(C6)CN(c6cc8c(cc6F)c(N6CCC(=O)NC6=O)nn8C)C7)CC5)C4)c(=O)c3c2)c1C#N [Compound 26, (3R)-3-[6-[2-cyano-3-[[ethyl(methyl)sulfamoyl]amino]-6-fluoro-phenoxy]-4-oxo-quinazolin-3-yl]-8-[2-[3-(2,4-dioxohexahydropyrimidin-1-yl)-5-fluoro-1-methyl-indazol-6-yl]-2-azaspiro[3.3]heptan-6-yl]-1-oxa-8-azaspiro[4.5]decane] | < 1000 | < 1000 | – | < 1000 | < 1000 | < 50 | < 1000 | < 50 | < 1000 | – | – | – | – | – | – | < 50
4 | CCN(C)S(=O)(=O)Nc1ccc(F)c(Oc2ccc3ncn(C4CC5(CCN(C6CC7(C6)CN(c6cc8c(cc6F)c(N6CCC(=O)NC6=O)nn8C)C7)CC5)C4)c(=O)c3c2)c1C#N (stereo not drawn) [Compound 141, 6-[2-cyano-3-[[ethyl(methyl)sulfamoyl]amino]-6-fluoro-phenoxy]-3-[7-[2-[3-(2,4-dioxohexahydropyrimidin-1-yl)-5-fluoro-1-methyl-indazol-6-yl]-2-azaspiro[3.3]heptan-6-yl]-7-azaspiro[3.5]nonan-2-yl]-4-oxo-quinazoline] | < 1000 | < 1000 | – | < 1000 | < 1000 | < 50 | < 1000 | < 50 | < 1000 | – | – | – | – | – | – | < 50
5 | Cn1nc(N2CCC(=O)NC2=O)c2cc(F)c(C3CCC(N4CCC5(CC4)C[C@@H](n4cnc6ccc(Oc7c(F)ccc(NS(=O)(=O)N8CC[C@@H](F)C8)c7C#N)cc6c4=O)CO5)CC3)cc21 (single isomer, unassigned) [Compound 121] | < 1000 | < 1000 | < 50 | < 1000 | < 1000 | < 50 | < 1000 | < 50 | < 1000 | – | – | – | – | – | – | –
6 | CCN(C)S(=O)(=O)Nc1ccc(F)c(Oc2ccc3ncc(OC4CCN(C5CCC(c6ccc(NC7CCC(=O)NC7=O)cc6F)CC5)CC4)nc3c2)c1C#N (single isomer, unassigned) [Compound 110, 7-[2-cyano-3-[[ethyl(methyl)sulfamoyl]amino]-6-fluoro-phenoxy]-2-[[1-[4-[4-[(2,6-dioxo-3-piperidyl)amino]-2-fluoro-phenyl]cyclohexyl]-4-piperidyl]oxy]quinoxaline] | < 1000 | < 1000 | 50 to 90 | < 1000 | < 1000 | < 50 | < 1000 | < 50 | < 1000 | – | – | – | – | – | – | –
7 | CCN(C)S(=O)(=O)Nc1ccc(F)c(Oc2ccc3ncc([C@H]4COC5(CCN(C6CC7(C6)CN(c6cc8c(cc6F)c(N6CCC(=O)NC6=O)nn8C)C7)CC5)C4)nc3c2)c1C#N [Compound 158, (3S)-3-[7-[2-cyano-3-[[ethyl(methyl)sulfamoyl]amino]-6-fluoro-phenoxy]quinoxalin-2-yl]-8-[2-[3-(2,4-dioxohexahydropyrimidin-1-yl)-5-fluoro-1-methyl-indazol-6-yl]-2-azaspiro[3.3]heptan-6-yl]-1-oxa-8-azaspiro[4.5]decane] | < 1000 | 1000 to 10000 | – | – | – | – | – | – | – | – | – | – | – | – | – | 50 to 90
8 | CN(CCO)S(=O)(=O)Nc1ccc(F)c(Oc2ccc3ncn(C4CC5(CCN(C6CCC(c7ccc(NC8CCC(=O)NC8=O)cc7F)CC6)CC5)C4)c(=O)c3c2)c1C#N (single isomer, unassigned) [Compound 79, 6-[2-cyano-6-fluoro-3-[[2-hydroxyethyl(methyl)sulfamoyl]amino]phenoxy]-3-[7-[4-[4-[(2,6-dioxo-3-piperidyl)amino]-2-fluoro-phenyl]cyclohexyl]-7-azaspiro[3.5]nonan-2-yl]-4-oxo-quinazoline] | < 1000 | < 1000 | < 50 | < 1000 | < 1000 | < 50 | < 1000 | < 50 | < 1000 | – | – | – | – | – | – | –
9 | CO[C@H]1CCN(S(=O)(=O)Nc2ccc(F)c(Oc3ccc4ncn([C@H]5COC6(CCN(C7CCC(c8cc9c(cc8F)c(N8CCC(=O)NC8=O)nn9C)CC7)CC6)C5)c(=O)c4c3)c2C#N)C1 (single isomer, unassigned) [Compound 115] | < 1000 | < 1000 | < 50 | < 1000 | < 1000 | < 50 | < 1000 | < 50 | < 1000 | – | – | – | – | – | – | –
10 | CCN(C)S(=O)(=O)Nc1ccc(F)c(C(=O)c2ccc3ncn(C4CC5(CCN(C6CCC(c7cc8c(cc7F)c(N7CCC(=O)NC7=O)nn8C)CC6)CC5)C4)c(=O)c3c2)c1F (single isomer, unassigned) [Compound 182, 3-[7-[4-[3-(2,4-dioxohexahydropyrimidin-1-yl)-5-fluoro-1-methyl-indazol-6-yl]cyclohexyl]-7-azaspiro[3.5]nonan-2-yl]-6-[3-[[ethyl(methyl)sulfamoyl]amino]-2,6-difluoro-benzoyl]-4-oxo-quinazoline] | < 1000 | 1000 to 10000 | 50 to 90 | < 1000 | < 1000 | < 50 | < 1000 | < 50 | < 1000 | – | – | – | – | – | – | –
11 | CCN(C)S(=O)(=O)Nc1ccc(F)c(Oc2ccc3ncn(CC4CCN(C5CCC(c6cc7c(cc6F)c(N6CCC(=O)NC6=O)nn7C)CC5)CC4)c(=O)c3c2)c1C#N (single isomer, unassigned) [Compound 126, 6-[2-cyano-3-[[ethyl(methyl)sulfamoyl]amino]-6-fluoro-phenoxy]-3-[[1-[4-[3-(2,4-dioxohexahydropyrimidin-1-yl)-5-fluoro-1-methyl-indazol-6-yl]cyclohexyl]-4-piperidyl]methyl]-4-oxo-quinazoline] | < 1000 | < 1000 | < 50 | < 1000 | < 1000 | < 50 | < 1000 | < 50 | < 1000 | – | – | – | – | – | – | –
12 | CCN(C)S(=O)(=O)Nc1ccc(F)c(Oc2ccc3ncn([C@H]4COC5(CCN(C6CCC(c7cc8c(cc7F)c(N7CCC(=O)NC7=O)nn8C)CC6)CC5)C4)c(=O)c3c2F)c1C#N (single isomer, unassigned) [Compound 41] | < 1000 | < 1000 | – | < 1000 | < 1000 | < 50 | < 1000 | < 50 | < 1000 | – | – | – | – | – | – | < 50
13 | CN(CCO)S(=O)(=O)Nc1ccc(F)c(Oc2ccc3ncn(C4CC5(CCN(C6CCC(c7cc8c(cc7F)c(N7CCC(=O)NC7=O)nn8C)CC6F)CC5)C4)c(=O)c3c2)c1C#N (single isomer, unassigned) [Compound 145, 6-[2-cyano-6-fluoro-3-[[2-hydroxyethyl(methyl)sulfamoyl]amino]phenoxy]-3-[7-[4-[3-(2,4-dioxohexahydropyrimidin-1-yl)-5-fluoro-1-methyl-indazol-6-yl]-2-fluoro-cyclohexyl]-7-azaspiro[3.5]nonan-2-yl]-4-oxo-quinazoline] | < 1000 | < 1000 | – | < 1000 | < 1000 | < 50 | < 1000 | < 50 | < 1000 | – | – | – | – | – | – | < 50
